# Experimental data as given in patent publication US20160374979A1, “Method of Treatment of Alopecia with Monoterpenoids” (CELLMID LIMITED, priority 2013, published 2016).
# System: murine vibrissae follicles
# Experiment: Hair shaft elongation of murine vibrissae follicles cultured ex vivo
# Design: species or system C3H mice
# Conditions: piperitone 0.1 mg/mL in culture medium
# From the text: Five week old male C3H mice (supplied by Japan SLC, lnc., Hamamatsu, Japan) were used for isolation of vibrissae follicles. The mice were sacrificed and the vibrissae follicles were carefully dissected from the mystacial pad. Briefly, the mystacial pad was cut into two sides (left and right). The skin cut, picked at the edge by tweezers, was washed in (i) 70% Ethanol for 30 seconds, (ii) PBS for 10 seconds, (iii) fresh PBS for 10 seconds, and (iv) another fresh PBS for 10 seconds. This washing process was repeated twice. After washing, the skin cut was placed inverted to expose the vibrissae follicles in Dulbecco's Modified Eagle's Medium (DMEM; Wako Pure Chemical, Osaka, Japan) at 37° C. Under a dissecting microscope, the surrounding tissue was removed from the follicles using tweezers, carefully so as not to destroy the structure of the follicles. The isolated follicles were then placed immediately into Williams' E medium (Life Technologies, Carlsbad, USA).
# From the isolated mouse vibrissae follicles, only early anagen follicles were selected and randomized into groups with 30 follicles per group. […]
# Follicles in each of the treatment and control groups were incubated at 37° C. at 5% CO2 for 8 days, while exchanging the respective culture mediums every 2 days. From Day 1, elongation of hair shafts was observed and the elongation length was measured for each hair shaft every 24 hours from Day 1 to Day 8 using a micrometer under microscope. […]
# Follicles in each of the treatment and control groups were incubated at 37° C. at 5% CO2 for 5 days, while exchanging the culture medium every 3 days. From Day 1, elongation of hair shafts was observed and the elongation length was measured for each hair shaft every 24 hours from Day 1 to Day 5. using a micrometer under microscope. […]
smiles,measurement,setting,value
"CC1=CC(=O)C(C(C)C)CC1 (centres unmarked) [Piperitone, 3-Methyl-6-(propan-2-yl)cyclohex-2-en-1-one]",hair shaft elongation over time,5 days (FIG. 22),continued steadily and consistently throughout the culture period
same,hair growth,versus control,increased hair growth
